Read-outs that look alike come from different tables or passages of the source.
How the values were obtained:
LC3B [1] = target: T1, LC3B (Homo sapiens, UniProt Q9GZQ8); test: AlphaScreen interaction displacement assay (GST-LC3B / biotin-LIRtide); assay type: binding
T1 construct: made in house; host or cells: E. coli Rosetta (DE3)
Procedure: The AlphaScreen assay contained 50 mM Tris (pH 7.5), 100 mM NaCl, 0.01% Tween 20, 2 mM DTT, 1 % DMSO and 2-30 nM GST-LC3B and biotin-LIRtide 2-30 nM. The concentrations of GST-LC3B and biotin-LIRtide were experimentally chosen from a cross-titration assay exploring the different combinations of for each batch of protein used and when a new batch of buffer was prepared.
A gene encoding for human LC3B protein inserted in a pET-GST expression vector was used as a template. Rosetta (DE3) competent cells were transformed by started procedure, plated on an LB agar plate with ampicillin (100 µg/ml) and left overnight at 37 °C. Overnight culture was prepared from a single colony and shaken at 180 rpm at 37 °C. LB medium with ampicillin was inoculated with overnight culture (10 ml per 500 ml of LB) and shaken until the optical density at 600 nm (OD600) reached a value of approximately 0.6. Protein expression was then induced with 400 µM IPTG and further incubated for 4 hours. Bacterial culture was centrifuged for 20 minutes at 6000 rpm at 4 °C. The pellet was then resuspended in lysis buffer (20 mM TRIS-HCl pH 7.5, 10 mM EDTA, 5 mM EGTA, 150 mM NaCl, 0.5 % NP40, 1 % Triton X-100, 1 mM DTT, 2 mg/ml lysozyme, 0.05 U/µl benzonase, 1x protease inhibitor cocktail). Lysate was then stored at -20 °C over night. Sample was thawed in water bath and sonicated on ice (40 % amplitude, 30 seconds pulse/30 seconds pause cycle). Lysate was centrifuged at 10000xg at 4 °C for half an hour. Meanwhile, 500 µl of glutathione sepharose beads was equilibrated with lysis buffer and then added to the supernatant. The mixture was incubated and rotated at room temperature for 2 hours. After binding of the protein to the beads, beads were spun down at 500xg at 4 °C for 5 minutes. Pellet was then washed with cold wash buffer at least four times (20 mM Tris-HCl pH 7.5, 10 mM EDTA, 5 mM EGTA, 150 mM NaCl, 1 mM DTT), dried and stored in 5 % glycerol at 4 °C.

LC3B [2] = test: cellular autophagy screening: LC3B spots by immunocytochemistry and automated confocal imaging; assay type: cell-based; conditions: relative to negative DMSO control, 100 µM, 1 hour; for LC3B Inhibition cell based Fold increase of LC3B spots: Table 2a; for LC3B inhibition cell based Fold increase of LC3B spots [DMSO control 1.0]: Table 1-a, n.e. means no effect
Procedure: For screening purposes, cells were seeded in 384 well plates and left over night for attachment.
Afterwards, medium was removed and 4 % (w/v) paraformaldehyde (PFA) in PBS buffer was added to the cells for 20 minutes, incubated at room temperature. Cells were permeabilized with 0.1 % (v/v) Triton X-100 for 10 min at room temperature and washed with PBS. Cells were blocked with 3 % (w/v) bovine serum albumin (BSA) in PBS for 45 minutes at 37 °C and then incubated with anti-LC3B (PM036, MBL) or anti-p62 (PM045 or M162-3, MBL) primary antibody diluted in 0.3 % BSA (1:2000 or 1:500) for 1.5-2 hours at 37 °C. Cells were washed three times with PBS.
384 well plates were then analyzed with an automated confocal microscope Opera (PerkinElmer) enabling high throughput high content screening image analysis. […] A water immersion 60x objective was used for optical slicing and stacking (5x0.5 µm stacks). […] Signal was detected with a fast gated CCD camera. Acapella software (PerkinElmer) is an algorithm based high content imaging and analysis software used in multi-parametric multiplex assays. Acapella was used to follow cell viability (i.e. number of cells) and the number of LC3B and p62 spots per cell.
The LC3B protein is a ubiquitin-like protein that can be conjugated to phosphatidylethanolamine (PE) in the membrane of the incipient autophagosome. The nonlipidated and lipidated forms are usually referred to as LC3B-I and LC3B-II, respectively. […] Autophagic flux is often inferred on the basis of LC3B-II turnover, measured by western blot (WB) or immunofluorescence (IF) in the presence and absence of lysosomal degradation. […] Lysosomal degradation can be prevented e.g. through the use of compounds that neutralize the lysosomal pH such as Bafilomycin A1 (BafA1) or chloroquine (CQ). […] An additive or supra-additive effect in LC3B-II levels (WB) and LC3B-positive punctae numbers (IF) may indicate that the treatment enhances autophagic flux. […] This assay can be complemented by simultaneous monitoring of autophagosomal substrates or autophagosomal substrate receptors (e.g. SQSTM1/p62) by WB and/or IF. For example, an increase in LC3B-II levels in combination with the accumulation of SQSTM1/p62 is indicative of a blockage of the autophagy pathway at terminal stages.

[3] = Table 2a, read-out: LC3B Inhibition cell free IC50
[4] = Table 1-a, n.e. means no effect, read-out: LC3B inhibition cell free IC50
[5] = Table 1-a, n.e. means no effect

## CC(C)=CCc1cc(C(=O)Nc2c(O)c3ccc(O)c(C)c3oc2=O)ccc1O [Compound 2-1, N-(4,7-dihydroxy-8-methyl-2-oxo-2H-chromen-3-yl)-4-hydroxy-3-(3-methylbut-2-en-1-yl)benzamide]
LC3B [1]; [3]
  IC50: 87 µM

## COC1C(OC(N)=O)C(OC(C)=O)C(Oc2ccc3c(O)c(NC(=O)c4ccc(OC(C)=O)c(CC=C(C)C)c4)c(=O)oc3c2C)OC1(C)C (stereo not drawn) [Compound 2-2]
LC3B [2]
  LC3B Inhibition cell based Fold increase of LC3B spots: 1.5
LC3B [1]; [3]
  IC50: 19.3 µM

## COC1C(OC(N)=O)C(O)C(Oc2ccc3c(O)c(NC(=O)c4ccc(O)c(CCC(C)C)c4)c(=O)oc3c2C)OC1(C)C (stereo not drawn) [Compound 2-4, 5-hydroxy-6-((4-hydroxy-3-(4-hydroxy-3-isopentylbenzamido)-8-methyl-2-oxo-2H-chromen-7-yl)oxy)-3-methoxy-2,2-dimethyltetrahydro-2H-pyran-4-y/carbamate]
LC3B [2]
  LC3B Inhibition cell based Fold increase of LC3B spots: 1.2
LC3B [1]; [3]
  IC50: 4.8 µM

## COC1C(OC(N)=O)C(OC(C)=O)C(Oc2ccc3c(O)c(NC(=O)C(Cc4ccccc4)NC(=O)OC(C)(C)C)c(=O)oc3c2C)OC1(C)C (stereo not drawn) [Compound 2-7]
LC3B [2]
  LC3B Inhibition cell based Fold increase of LC3B spots: 1.0
LC3B [1]; [3]
  IC50: 145 µM

## Cc1c(O)ccc2c(O)c(NC(=O)C(Cc3ccccc3)NC(=O)OC(C)(C)C)c(=O)oc12 (stereo not drawn) [Compound 2-8]
LC3B [2]
  LC3B Inhibition cell based Fold increase of LC3B spots: 1.0
LC3B [1]; [3]
  IC50: 122 µM

## Cc1c(O)ccc2c(O)c(NC(=O)C(CC(C)C)NC(=O)OC(C)(C)C)c(=O)oc12 (stereo not drawn) [Compound 2-9]
LC3B [2]
  LC3B Inhibition cell based Fold increase of LC3B spots: 1.2
LC3B [1]; [3]
  IC50: 73.3 µM

## Cc1c(O)ccc2c(O)c(NC(=O)C(CCc3ccccc3)NC(=O)OC(C)(C)C)c(=O)oc12 (stereo not drawn) [Compound 2-10]
LC3B [2]
  LC3B Inhibition cell based Fold increase of LC3B spots: 1.0
LC3B [1]; [3]
  IC50: 155 µM

## Cc1c(O)ccc2c(O)c(NC(=O)c3cccc(-c4ccccc4)c3)c(=O)oc12 [Compound 2-11]
LC3B [2]
  LC3B Inhibition cell based Fold increase of LC3B spots: 1.1
LC3B [1]; [3]
  IC50: 63 µM

## Cc1c(O)ccc2c(O)c(NC(=O)c3cccc(Oc4ccccc4)c3)c(=O)oc12 [Compound 2-12]
LC3B [2]
  LC3B Inhibition cell based Fold increase of LC3B spots: 1.1
LC3B [1]; [3]
  IC50: 54 µM

## Clc1ccc(CSC2=NCN(Cc3cccnc3)CN2)cc1 [Compound I-2, 6-((4-chlorobenzyl)thio)-3-(pyridin-3-ylmethyl)-12,3,4-tetrahydro-1,3,5-triazine]
LC3B [2]
  LC3B inhibition cell based Fold increase of LC3B spots [DMSO control 1.0]: 3.2
LC3B [1]; [4]
  IC50: 16 µM

## Fc1ccc(CSC2=NCN(Cc3cccnc3)CN2)cc1 [Compound I-3, 6-((4-fluorobenzyl)thio)-3-(pyridin-3-ylmethyl)-1,2,3,4-tetrahydro-1,3,5-triazine]
LC3B [2]
  LC3B inhibition cell based Fold increase of LC3B spots [DMSO control 1.0]: 1.8
LC3B [1]; [4]
  IC50: 23.6 µM

## c1ccc(CSC2=NCN(Cc3cccnc3)CN2)cc1 [Compound I-4, 6-(benzylthio)-3-(pyridin-3-ylmethyl)-1,2,3,4-tetrahydro-1,3,5-triazine]
LC3B [2]
  LC3B inhibition cell based Fold increase of LC3B spots [DMSO control 1.0]: 1.7
LC3B [1]; [4]
  IC50: 19.5 µM

## FC(F)(F)c1ccc(CSC2=NCN(Cc3cccnc3)CN2)cc1 [Compound I-5, 3-(pyridin-3-ylmethyl)-6-((4-(trifluoromethyl)benzyl)thio)-1,2,3,4-tetrahydro-1,3,5-triazine]
LC3B [2]
  LC3B inhibition cell based Fold increase of LC3B spots [DMSO control 1.0]: 3.2
LC3B [1]; [4]
  IC50: 30.9 µM

## COc1ccc(CSC2=NCN(Cc3cccnc3)CN2)cc1 [Compound I-6, 6-((4-methoxybenzyl)thio)-3-(pyridin-3-ylmethyl)-1,2,3,4-tetrahydro-1,3,5-triazine]
LC3B [2]
  LC3B inhibition cell based Fold increase of LC3B spots [DMSO control 1.0]: 1.8
LC3B [1]; [4]
  IC50: 12.3 µM

## CC(C)CCNC(=O)c1ccc(CSC2=NCN(Cc3cccnc3)CN2)cc1 [Compound I-7, N-isopentyl-4-(((5-(pyridin-3-ylmethyl)-1,4,5,6-tetrahydro-1,3,5-triazin-2-yl)thio)methyl)benzamide]
LC3B [2]
  LC3B inhibition cell based Fold increase of LC3B spots [DMSO control 1.0]: 3.1
LC3B [1]; [4]
  IC50: 26.6 µM

## Brc1cccc(CSC2=NCN(Cc3cccnc3)CN2)c1 [Compound I-8, 6-((3-bromobenzyl)thio)-3-(pyridin-3-ylmethyl)-1,2,3,4-tetrahydro-1,3,5-triazine]
LC3B [2]
  LC3B inhibition cell based Fold increase of LC3B spots [DMSO control 1.0]: 3.0
LC3B [1]; [4]
  IC50: 21 µM

## COc1cccc(CSC2=NCN(Cc3cccnc3)CN2)c1 [Compound I-9, 6-((3-methoxybenzyl)thio)-3-(pyridin-3-ylmethyl)-1,2,3,4-tetrahydro-1,3,5-triazine]
LC3B [2]
  LC3B inhibition cell based Fold increase of LC3B spots [DMSO control 1.0]: n.e.
LC3B [1]; [4]
  IC50: 18.5 µM

## c1ccc(Oc2cccc(CSC3=NCN(Cc4cccnc4)CN3)c2)cc1 [Compound I-10, 6-((3-phenoxybenzyl)thio)-3-(pyridin-3-ylmethyl)-1,2,3,4-tetrahydro-1,3,5-triazine]
LC3B [2]
  LC3B inhibition cell based Fold increase of LC3B spots [DMSO control 1.0]: 6.1
LC3B [1]; [4]
  IC50: 1 µM

## CC(C)CCNC(=O)c1cccc(CSC2=NCN(Cc3cccnc3)CN2)c1 [Compound I-11, N-isopentyl-3-(((5-(pyridin-3-ylmethyl)-1,4,5,6-tetrahydro-1,3,5-triazin-2-yl)thio)methyl)benzamide]
LC3B [2]
  LC3B inhibition cell based Fold increase of LC3B spots [DMSO control 1.0]: n.e.
LC3B [1]; [4]
  IC50: 12.2 µM

## COC(=O)[C@H](CC(C)C)NC(=O)c1cccc(CSC2=NCN(Cc3cccnc3)CN2)c1 [Compound I-12, methyl(3-(((5-(pyridin-3-ylmethyl)-1,4,5,6-tetrahydro-1,3,5-triazin-2-yl)thio)methyl)benzoyl)leucinate]
LC3B [2]
  LC3B inhibition cell based Fold increase of LC3B spots [DMSO control 1.0]: 5.0
LC3B [1]; [4]
  IC50: 8.9 µM

## Fc1ccc(CN2CN=C(SCc3ccc(Br)cc3)NC2)cc1 [Compound I-14, 6-((4-bromobenzyl)thio)-3-(4-fluorobenzyl)-1,2,3,4-tetrahydro-1,3,5-triazine]
LC3B [2]
  LC3B inhibition cell based Fold increase of LC3B spots [DMSO control 1.0]: 5.8
LC3B [1]; [5]
  LC3B inhibition cell free IC50: n.e

## Fc1ccc(CN2CN=C(SCc3cccc(Oc4ccccc4)c3)NC2)cc1F [Compound I-18, 3-(3,4-difluorobenzyl)-6-((3-phenoxybenzyl)thio)-1,2,3,4-tetrahydro-1,3,5-triazine]
LC3B [1]; [5]
  LC3B inhibition cell free IC50: n.e

## Fc1cccc(CN2CN=C(SCc3ccc(Br)cc3)NC2)c1 [Compound I-19, 6-((4-bromobenzyl)thio)-3-(3-fluorobenzyl)-1,2,3,4-tetrahydro-1,3,5-triazine]
LC3B [1]; [5]
  LC3B inhibition cell free IC50: n.e.

## Fc1cccc(CN2CN=C(SCc3cccc(Oc4ccccc4)c3)NC2)c1 [Compound I-20, 3-(3-fluorobenzyl)-6-((3-phenoxybenzyl)thio)-1,2,3,4-tetrahydro-1,3,5-triazine]
LC3B [1]; [5]
  LC3B inhibition cell free IC50: n.e.

## CCN(CC)CCCC(C)Nc1ccnc2cc(Cl)ccc12 (stereo not drawn) [chloroquine, reference compound]
LC3B [2]
  LC3B inhibition cell based Fold increase of LC3B spots [DMSO control 1.0]: 4.4
  LC3B Inhibition cell based Fold increase of LC3B spots: 4.4

## CCC(=O)N1CCN(c2ccc(-n3c(=O)ccc4cnc5ccc(-c6cnc7ccccc7c6)cc5c43)cc2C(F)(F)F)CC1 [torin 1, reference compound]
LC3B [2]
  LC3B inhibition cell based Fold increase of LC3B spots [DMSO control 1.0]: 3.1
  LC3B Inhibition cell based Fold increase of LC3B spots: 3.1

Reference: EP3184514A1, “AUTOPHAGY INHIBITORS” (Deutsches Krebsforschungszentrum, priority 2015, dated 2017)
